Test results from patent US20130123460A1, “PEPTIDE FOR IMPROVING BIOSTABILITY OF BIOACTIVE SUBSTANCE, AND BIOACTIVE SUBSTANCE HAVING IMPROVED BIOSTABILITY” (priority 2010, published 2013).
Entries after “also recorded” stand apart in the source; their conditions may differ. Like-named read-outs stand apart in the source and are kept apart here. Where no end group is shown, it is not given here.

Columns and labels:
[1] = target: T1, endogenous GLP-1 receptor (Mus musculus, UniProt O35659); assay: Insulin secretion capacity of GLP-1 peptide complex in MIN 6 cells;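 for all read-outs here: insulin released into the supernatant of MIN 6 cultures quantified by ELISA, absorbance read at 450 nm with 620 nm reference after substrate addition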; format: cell-based; settings: for Insulin secretion capacity (% of control): 1000 pM, control = native GLP-1 at 1000 pM; for Insulin secretion capacity (activity) compared with native GLP-1, in words: MIN 6 cells, 30, 100, 300 or 1000 pM (FIG. 2, FIG. 3)
T1 construct: expressing an endogenous GLP-1 receptor; endogenous in cells; host or cells: MIN 6 mouse insulinoma cells (obtained from a person)
T1 sequence (O35659 22-463): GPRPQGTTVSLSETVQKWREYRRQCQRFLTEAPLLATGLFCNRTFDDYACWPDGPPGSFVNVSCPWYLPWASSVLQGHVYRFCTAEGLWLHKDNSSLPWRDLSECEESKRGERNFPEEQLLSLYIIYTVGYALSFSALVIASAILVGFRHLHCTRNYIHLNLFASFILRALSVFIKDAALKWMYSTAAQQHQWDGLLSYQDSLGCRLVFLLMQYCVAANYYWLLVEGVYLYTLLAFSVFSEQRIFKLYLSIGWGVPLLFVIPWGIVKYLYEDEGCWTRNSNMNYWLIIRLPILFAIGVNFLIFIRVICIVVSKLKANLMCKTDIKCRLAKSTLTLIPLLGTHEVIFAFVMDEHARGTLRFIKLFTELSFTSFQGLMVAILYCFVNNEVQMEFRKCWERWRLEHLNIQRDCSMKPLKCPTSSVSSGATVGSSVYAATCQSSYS
Protocol: MIN 6 was seeded on a multi-plate, which was cultivated at 37° C. for 48 hours. After that, the culture was washed twice with a KRH buffer solution including 2 mM glucose solution (including NaCl 119 mM, KCl 4.74 mM, CaCl2 2.54 mM, MgCl2 1.19 mM, KH2PO4 1.19 mM, 10 mM HEPES buffer solution pH7.3, and 0.1% BSA), and then it was incubated at 37° C. for one hour. […] A supernatant thereof was recovered, and an amount of insulin secreted was measured. The measurement of the insulin was performed in an enzyme-linked immunosorbent assay (ELISA), and an absorbance was measured at 450 nm (a sub-wavelength: 620 nm) after the addition of a substrate.
EC50 values thereof were calculated in the same manner as in Part 2, and the influence on the bioactivity caused by the addition of the partial peptide of the GA module were inspected in detail.
The analysis was performed using the following calculation formula.

[2] = Plasma stability of GLP-1 peptide complex (remaining rate in rat plasma, HPLC/MS); format: in vitro ADME, SD rats; settings: for remaining at 8 h, 0.5 μmol/L / remaining at 48 h, 0.5 μmol/L: SD
Description: SD rats were anesthetized with diethyl ether, whole blood was collected and a plasma fraction was separated therefrom.

[3] = rat plasma, 0.5 μmol/L, 37° C., 8 hours, relative to 0 hour = 100%, read-out: Remaining rate in plasma after 8 hours (%)
[4] = rat plasma, 0.5 μmol/L, 37° C., 48 hours, relative to 0 hour = 100%, read-out: Remaining rate in plasma after 48 hours (%)
[5] = rat plasma, 0.5 μmol/L, 37° C., 48 hours, relative to 0 hour = 100%

Compound | Insulin secretion capacity (% of control) ([1]; MIN 6 cells, 15 mM glucose) [%] | remaining at 8 h, 0.5 μmol/L ([2]; rat, plasma) [%] | remaining at 48 h, 0.5 μmol/L ([2]; rat, plasma) [%] | EC50 ([1]; MIN 6 cells, 15 mM glucose, concentration for 50% of maximum activity of native GLP-1 at 1000 pM, read-out: EC50 value (nM), insulin secretion capacity) [nM] | EC50 [1] [nM] | Insulin secretion capacity (activity) compared with native GLP-1, in words [1] | remaining at 8 h, 0.5 μmol/L [2, 3] [%] | remaining at 48 h, 0.5 μmol/L [2, 4] [%] | Remaining rate in plasma after 48 hours (%) [2, 5] [%]
HSEGTFTSDVSSYLEGQAAKEFIAWLVKGINNAKTVEGVKALIDEILAALP-NH2 [Example 16, [Ser8]-GLP-1(7-35)-GAm(25-46)-NH2] | 104 | 102 | 93 | – | – | – | – | – | –
HSEGTFTSDVSSYLEGQAAKEFIAWLVKGVSDYYKNLINNAKTVEGVKALIDEILAALP-NH2 [Comparative Example 5, [Ser8]-GLP-1(7-35)-GAm(17-46)-NH2, reference compound] | – | – | – | – | > 1 | hardly detected; also recorded: remarkably decreased | 105 | 105 | 105
HSEGTFTSDVSSYLEGQAAKEFIAWLVKGVEGVKALIDEILAA-NH2 [Example 11, [Ser8]-GLP-1(7-35)-GAm(31-44)-NH2] | 83 | 99 | 92 | – | – | – | – | – | –
CC[C@H](C)[C@H](NC(=O)CNC(=O)[C@H](CCCCN)NC(=O)[C@@H](NC(=O)[C@H](CC(C)C)NC(=O)[C@H](Cc1c[nH]c2ccccc12)NC(=O)[C@H](C)NC(=O)[C@@H](NC(=O)[C@H](Cc1ccccc1)NC(=O)[C@H](CCC(=O)O)NC(=O)[C@H](CCCCN)NC(=O)[C@H](C)NC(=O)[C@H](C)NC(=O)[C@H](CCC(N)=O)NC(=O)CNC(=O)[C@H](CCC(=O)O)NC(=O)[C@H](CC(C)C)NC(=O)[C@H](Cc1ccc(O)cc1)NC(=O)[C@H](CO)NC(=O)[C@H](CO)NC(=O)[C@@H](NC(=O)[C@H](CC(=O)O)NC(=O)[C@H](CO)NC(=O)[C@@H](NC(=O)[C@H](Cc1ccccc1)NC(=O)[C@@H](NC(=O)CNC(=O)[C@H](CCC(=O)O)NC(=O)[C@H](C)NC(=O)[C@@H](N)Cc1c[nH]cn1)[C@@H](C)O)[C@@H](C)O)C(C)C)[C@@H](C)CC)C(C)C)C(=O)N[C@@H](CC(=O)O)C(=O)N[C@@H](CCC(=O)O)C(=O)N[C@H](C(=O)N[C@@H](CC(C)C)C(N)=O)[C@@H](C)CC [Example 5, GLP-1(7-35)-GAm(38-42)-NH2] | 112 | – | – | – | – | – | 73 | 83 | –
HSEGTFTSDVSSYLEGQAAKEFIAWLVKGNAKTVEGVKALIDEILAALP-NH2 [Example 15, [Ser8]-GLP-1(7-35)-GAm(27-46)-NH2] | 106 | 111 | 93 | – | – | – | – | – | –
HSEGTFTSDVSSYLEGQAAKEFIAWLVKGKALIDEILAA-NH2 [Example 4, [Ser8]-GLP-1(7-35)-GAm(35-44)-NH2] | 115 | 77 | 117 | – | – | – | – | – | –
HSEGTFTSDVSSYLEGQAAKEFIAWLVKGAKTVEGVKALIDEIL-NH2 [Example 13, [Ser8]-GLP-1(7-35)-GAm(28-42)-NH2] | 105 | 88 | 87 | – | – | – | – | – | –
HSEGTFTSDVSSYLEGQAAKEFIAWLVKGGVKALIDEILAA-NH2 [Example 9, [Ser8]-GLP-1(7-35)-GAm(33-44)-NH2] | 118 | 104 | 93 | – | – | – | – | – | –

Second part, led by results:

Insulin secretion capacity (% of control) ([1]; MIN 6 cells, 15 mM glucose) [%] | remaining at 8 h, 0.5 μmol/L ([2]; rat, plasma) [%] | remaining at 48 h, 0.5 μmol/L ([2]; rat, plasma) [%] | EC50 ([1]; MIN 6 cells, 15 mM glucose, concentration for 50% of maximum activity of native GLP-1 at 1000 pM, read-out: EC50 value (nM), insulin secretion capacity) [nM] | Compound | EC50 [1] [nM] | Insulin secretion capacity (activity) compared with native GLP-1, in words [1] | remaining at 8 h, 0.5 μmol/L [2, 3] [%] | remaining at 48 h, 0.5 μmol/L [2, 4] [%] | Remaining rate in plasma after 48 hours (%) [2, 5] [%]
139 | 99 | 88 | – | HSEGTFTSDVSSYLEGQAAKEFIAWLVKGAKTVEGVKALIDEILAA [Example 18, [Ser8]-GLP-1(7-35)-GAm(28-44)] | – | – | – | – | –
89 | 114 | 102 | – | HSEGTFTSDVSSYLEGQAAKEFIAWLVKGGVKALIDEILAA [Example 19, [Ser8]-GLP-1(7-35)-GAm(33-44)] | – | – | – | – | –
18 | – | – | > 1 | [Ser8]-GLP-1(7-35)-GAm(1-46)-NH2 [Comparative Example 4, reference compound] | – | remarkably impaired; also recorded: remarkably decreased | – | – | 105
